Marks after values point to notes of the source that are not given here.
Legend:
[1] = tested on: NIH3T3/FGFR3^S249C subcutaneous tumors; assay: Anti-tumor activity in subcutaneous NIH3T3/FGFR3^S249C tumor homograft model in nude mice; format: in vivo, mouse; conditions: p.o., qd, treatment day 8
Experimental: (§1) Animals. Experiments were performed in female HsdNpa: Athymic Nude-nu mice obtained from Laboratory Animal Services, Novartis Pharma AG, Basel, Switzerland. The animals were kept under OHC conditions in Makrolon type II cages (maximum of 10 animals/cage) with 12 hour dark, 12 hour light conditions (lights on: 6 AM, lights off: 6 PM). The animals were fed food and water ad libitum. Experiments were conducted under license number 1762 and license number 1763 approved by the Basel Cantonal Veterinary Office. All invasive procedures were performed under Forene anesthesia.
Establishment of NIH3T3/FGFR3^S249C tumor homograft model in nude mice. The NIH3T3/FGFR3^S249C model has been validated and characterized as a subcutaneous murine tumor model for the in vivo profiling of FGFR inhibitors. The parental NIH3T3 cell line was originally derived by immortalization of mouse embryonic fibroblasts. NIH3T3/FGFR3^S249C cells were generated by infection of parental NIH3T3 fibroblasts with a retroviral vector expressing FGFR3 with the activating mutation S249C. Pools of G418 resistant NIH3T3^S249C cells were established and characterized for FGFR3 expression and tyrosine phosphorylation. To generate homografts, 5×10^5 NIH3T3/FGFR3^S249C cells resuspended in PBS were injected subcutaneously in nude mice (0.2 ml/mouse).
Evaluation of anti-tumor activity. For the NIH3T3/FGFR3^S249C model, treatment was initiated when the average tumor volume reached approximately 100 mm^3. Tumor growth and body weights were monitored at regular intervals. The tumor sizes were measured manually with calipers. Tumor volume was estimated using the formula: (W×L×H×π/6), where width (W), length (L) and height (H) are the three largest diameters.
(§2) Statistical analysis. When applicable, results are presented as mean±SEM. Tumor and body weight data were analyzed by ANOVA with post hoc Dunnett's test for comparison of treatment versus control group. The post hoc Tukey test was used for intra-group comparison. The level of significance of body weight change within a group between the start and the end of the experiment was determined using a paired t-test. Statistical analysis was performed using GraphPad prism 4.02 (GraphPad Software).
(§3) As a measure of anti-tumor efficacy, the % T/C value is calculated at a certain number of days after treatment start according to: (mean change of tumor volume treated animals/mean change tumor volume control animals)×100. When applicable, % regressions are calculated according to the formula (mean change tumor volume/mean initial tumor volume)×100.
(§4) Compound formulation and animal treatment. […] Vehicle consisted of PEG300/DSW. The application volumes were 10 ml/kg.

[2] = tested on: RT112/lucl xenograft tumors; assay: Anti-tumor activity in RT112/lucl subcutaneous xenograft model in nude mice; format: in vivo, mouse; conditions: 14 days; for Regr. (%) / Δ body weight (% ± SEM) / Δ body weight (mean g ± SEM) / Δ tumor volume (mean mm^3 ± SEM): p.o., qd
Experimental: as §1
Establishment of RT112/lucl tumor xenograft model in nude mice. The parental RT-112 human urinary bladder transitional cell carcinoma cell line, which expressed high levels of wild type FGFR3, was initially derived from a patient with untreated primary urinary bladder carcinoma (histological grade G2, stage not recorded) in 1973 (Marshall et al., 1977, Masters et al., 1986). The original stock vial of RT112 cells used in this study was obtained from DSMZ ACC #418.
The cells were cultured in MEM medium supplemented with 10% Fetal Calf Serum, 1% sodium pyruvate and 1% L-glutamine. Cell culture reagents were purchased from BioConcept (Allschwil, Switzerland).
The parental RT112 cell line was infected with the retroviral expression vector pLNCX2/lucl and pools of G418 resistant cells were established and characterized for luciferase expression. The CMV driven expression of luciferase allows the detection of tumors using Xenogen IVIS™ cameras after injection of D-luciferin.
For the RT112/lucl model, treatments were initiated when the mean tumor volumes were approx. 180 mm^3 and mice were treated daily for 14 days. Body weights and tumor volumes were recorded twice a week. Tumor volumes were measured with calipers and determined according to the formula length×diameter^2×π/6.
as §2, §3, §4

FGF23 [3] = assay: FGF23 ELISA in plasma of nude mice bearing RT112/lucl xenografts; format: in vivo, mouse; conditions: 50 or 75 mg/kg/qd p.o., 14 days; two hours post-last dosing
Experimental: Data are presented as means±SD.
Tissue processing for ex vive analysis. At the end of the experiments, 2 hours after the last compound administrations, tumor samples and blood were collected.
Aliquots of 50 mg tumor powder were weighed, placed on ice and immediately resuspended at a ratio of 1:10 (w/v) in ice-chilled lysis buffer (50 mM Tris pH 7.5, 150 mM NaCl, 1 mM EGTA, 5 mM EDTA, 1% Triton, 2 mM NaVanadate, 1 mM PMSF and protease inhibitors cocktail Roche #11873580001). Lysis was allowed to proceed for 30 min on ice, lysates were clarified by centrifugation at 12000×g for 15 min and protein concentration was determined using DC protein assay reagents (Bio Rad #500-0116) and a BSA standard. Blood was collected from the vena cava with a 23 gauge needle into a 1 ml syringe containing 70 μl of a 1000 IU/ml heparin solution. Blood was then stored on ice for 30 min until centrifugation (10,000 g, 5 min) and then the plasma was collected.
FGF23 ELISA assay. […] Briefly, two specific murine monoclonal antibodies that bind to full-length FGF-23 are used: the first antibody is immobilized onto the microtiter plate well for capture and the second antibody is cojugated to HRP (horseradish peroxidase) for detection. In a first reaction, plasma or serum samples are added onto microtiter wells coated with the anti-FGF23 antibody to allow binding. […]

[4] = Rat mechanistic study: histopathology and tolerability; format: in vivo
FGF23 [5] = assay: FGF23 ELISA in plasma of dogs; format: in vivo, dog; conditions: plasma 1 hour after last administration
FGF23 [6] = assay: FGF23 ELISA in serum of wistar rats; format: in vivo, rat; conditions: 24 h post administration, p<0.01
Experimental: Data are presented as means of n=6, ±SD.
Animals. Experiments were performed in female wistar rats furth WF/Ico
The application volumes were 5 ml/kg.
Blood samples were drawn sublingually at 24 h post-compound administration. Plasma, as well as serum samples were prepared from each blood sample.

## CCN1CCN(c2ccc(Nc3cc(N(C)C(=O)Nc4c(Cl)c(OC)cc(OC)c4Cl)ncn3)cc2)CC1 [COMPOUND A, 3-(2,6-Dichloro-3,5-dimethoxy-phenyl)-1-{6-[4-(4-ethyl-perpazin-1-yl)-phenylamino]-pyrimidin-4-yl}-1-methyl urea]
[1]; 10 mg/kg
  T/C (%): 34%
  Δ body weight (% ± SEM): 18.0 ± 3.2%
  Δ body weight (mean g ± SEM): 4.2 ± 0.7 g
  Δ tumor volume (mean mm^3 ± SEM): 1320 ± 245* mm^3
[1]; 30 mg/kg
  T/C (%): 4%
  Δ body weight (% ± SEM): 7.0 ± 3.1 %
  Δ body weight (mean g ± SEM): 1.6 ± 0.7 g
  Δ tumor volume (mean mm^3 ± SEM): 156 ± 56* mm^3
[1]; 50 mg/kg
  Regr. (%): 40%
  Δ body weight (% ± SEM): 4.6 ± 2.2 %
  Δ body weight (mean g ± SEM): 1.1 ± 0.5 g
  Δ tumor volume (mean mm^3 ± SEM): −43 ± 28* mm^3
[2]; 50 mg/kg
  Regr. (%): 67%
  Δ body weight (% ± SEM): 10.8 ± 4.1%
  Δ body weight (mean g ± SEM): 2.6 ± 1.0 g
  Δ tumor volume (mean mm^3 ± SEM): −120 ± 12* mm^3
[2]; 75 mg/kg
  Regr. (%): 74%
  Δ body weight (% ± SEM): −4.0 ± 4.5%
  Δ body weight (mean g ± SEM): -1.1 ± 1.1 g
  Δ tumor volume (mean mm^3 ± SEM): −133 ± 13* mm^3
[2]; 50 and 75 mg/kg per day orally
  Tolerability of treatments: well tolerated
FGF23 [3]
  Plasma levels of FGF23 vs vehicle-treated group: increased plasma levels of FGF23
[4]; 10 mg/kg/day 15 days + 4 days recovery, 20 mg/kg/day 3 days + 4 days recovery, 20 mg/kg/day 6 days
  Bone remodeling events (histopathology): Signs of bone remodeling events were noted
[4]; 10 mg/kg/qd groups
  Soft tissue/vascular mineralization (histopathology): not observed
[4]; 20 mg/kg once daily p.o., after the 6th administration
  Body weight effect leading to premature termination: severe body weight loss
[4]; 20 mg/kg/day for 3 days after 4 recovery days, and after 6 days of treatment
  Soft tissue/vascular mineralization (histopathology): Soft tissue/vascular mineralization was detected
[4]; male rats, 10 and 20 mg/kg/day p.o., after three days of treatment
  Growth plate thickening (histopathology): Growth plate thickening was detected
FGF23 [5]; group 2, 3 → 100 mg/kg/day p.o., animal # 453 (male)
  FGF-23 cont.: 262.5 pg/mL
FGF23 [5]; group 2, 3 → 100 mg/kg/day p.o., animal # 454 (female)
  FGF-23 cont.: 211.3 pg/mL
FGF23 [5]; group 3, 30 mg/kg/day p.o., 15 days, animal # 455 (male)
  FGF-23 cont.: 534.3 pg/mL
FGF23 [5]; group 3, 30 mg/kg/day p.o., 15 days, animal # 456 (female)
  FGF-23 cont.: 322.7 pg/mL
FGF23 [5]; group 4, 300 mg/kg/day p.o., 8 days, animal # 457 (male)
  FGF-23 cont.: 824.6 pg/mL
FGF23 [5]; group 4, 300 mg/kg/day p.o., 8 days, animal # 458 (female)
  FGF-23 cont.: 614.8 pg/mL
FGF23 [6]; single oral 10 mg/kg
  serum levels of FGF23 vs vehicle-treated group: statistically significant increased in serum levels of FGF23

## CCN(CC)CCCCNc1ncc2cc(-c3cc(OC)cc(OC)c3)c(NC(=O)NC(C)(C)C)nc2n1 [PD173074]
FGF23 [6]; single oral 50 mg/kg
  serum levels of FGF23 vs vehicle-treated group: statistically significant increased in serum levels of FGF23

From patent publication US20150323548A1, “METHODS OF MONITORING THE MODULATION OF THE KINASE ACTIVITY OF FIBROBLAST GROWTH FACTOR RECEPTOR AND USES OF SAID METHODS” (Novartis AG, priority 2008, published 2015)
